What was measured:
mice = experiment: Analgesic, anti-inflammatory activity test (formalin test); assay type: in vivo; details: male ICR mice, 1.0% formalin (20 μl injected), sample 40 mg/kg intraperitoneal, 15 min before stimulation, n=10, average value±standard error; for 1st phase response (0 to 10 min), licking time: control 121.33 ± 5.32; for 2nd phase response (10 to 30 min), licking time: control 183.51 ± 20.10
Method: An analgesic, anti-inflammatory activity test (the so-called “formalin test”) was carried out using samples 1 to 9 as test drugs.
A 1.0% formalin solution (20 μl) was injected as a stimulant into the hypoderm of the planta depis in the hind leg of mice (five-week-old male ICR mice which, after purchase, had been subjected to quarantine and acclimation for one week). An act of licking the hind leg by the mice for alleviating the pain was then successively measured with a stopwatch 5 min by 5 min for 30 min. In this case, for each of the test drugs (samples 1 to 9), a suspension corresponding to a dose of 40 mg/kg was prepared using an aqueous solution of 0.5% polyoxyethylene sorbitan monooleate (Tween 80; a product of Atlas). The suspension (100 μl) for each sample was intraperitoneally administered to the mice 15 min before the stimulation. For a control group, the same volume of 0.5% Tween 80 was intraperitoneally administered to the mice.
It is generally known that the formalin test as described above causes a biphasic response, that is, the following first-phase response and second-phase response.
The first-phase response refers to a response indicated by pain in a 0 to 10 min period after the stimulation with formalin, that is, a response indicated by pain caused by direct stimulation of the sensory nerve at its end upon the injection of formalin. At the present time, only narcotic analgesics such as morphine are known to have inhibitory activity against this first-phase response. On the other hand, the second-phase response refers to a response indicated by pain in a 10 to 30 min period after the stimulation with formalin, that is, a response indicated by pain attributable to inflammation caused upon the injection of formalin. This response can be inhibited by conventional analgesics such as aspirin.
The analgesic, anti-inflammatory activity was evaluated in two separate phases, a phase from 0 min to 10 min after the administration and a phase from 10 min to 30 min after the administration. For each of the phases, the total number of seconds for which the mouse licked the hind leg (licking time) was calculated, and this value was compared with the value for the control.

rats = experiment: Acute gastric ulcer test; assay type: in vivo
Method: An acute gastric ulcer test was carried out using sample 2 and indometacin as test drugs. […] By contrast, for sample 2, the same test was carried out, except that, instead of indometacin, sample 2 was orally administered at a dose of 10 to 300 mg/kg.

| Compound | 1st phase response (0 to 10 min), licking time (mice) | 2nd phase response (10 to 30 min), licking time (mice) | occurrence of a gastric ulcer (rats; orally administered at a dose of 10 to 300 mg/kg, same test as for indometacin) | occurrence of a gastric ulcer (rats; orally administered at a dose of not less than 50 mg/kg, seven hr after the administration) |
| --- | --- | --- | --- | --- |
| O=C(O)C1C(c2ccc(O)cc2)C(C(=O)O)C1c1ccc(O)cc1 (stereo not drawn) [Sample 2, 4,4′-dihydroxy-α-truxillic acid] | 102.34 ± 4.09 s | 7.12 ± 3.29 s | an ulcer did not occur at all |  |
| O=C(O)C1C(C(=O)O)C(c2ccccc2)C1c1ccccc1 (stereo not drawn) [Sample 4, β-truxinic acid] | 59.40 ± 7.19 s | 74.75 ± 11.94 s |  |  |
| O=C(O)C1C(C(=O)O)C(c2ccc(Cl)cc2)C1c1ccc(Cl)cc1 (stereo not drawn) [Sample 6, 4,4′-dichloro-β-truxinic acid] | 59.37 ± 6.04 s | 34.44 ± 9.13 s |  |  |
| COC(=O)C1C(c2ccc(O)cc2)C(C(=O)OC)C1c1ccc(O)cc1 (stereo not drawn) [Sample 8, dimethyl 4,4′-dihydroxy-α-truxillate] | 89.65 ± 4.67 s | 122.70 ± 7.16 s |  |  |
| COc1ccc2c(c1)c(CC(=O)O)c(C)n2C(=O)c1ccc(Cl)cc1 [indometacin, reference compound] |  |  |  | the occurrence of a gastric ulcer was clearly learned |
